From PubChem BioAssay (NCI)
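Results reflect a 48-hour exposure of cells in 96-well plates to compound at five concentrations. GI50: concentration for 50% inhibition of growth. TGI denotes the concentration required for complete inhibition of growth.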

Legend:
Assay in all cases: DTP human tumour cell line panel, 48 h; in the data active = GI50 below about 0.43 µM; inactive = the rest
786-0 renal = test system: 786-0 renal
A498 renal = test system: A498 renal
A549 NSCLC = test system: A549 NSCLC
ACHN renal = test system: ACHN renal
BT-549 breast = test system: BT-549 breast
CAKI-1 renal = test system: CAKI-1 renal
CCRF-CEM leukemia = test system: CCRF-CEM leukemia
COLO 205 colon = test system: COLO 205 colon
DU-145 prostate = test system: DU-145 prostate
EKVX NSCLC = test system: EKVX NSCLC
HCC-2998 colon = test system: HCC-2998 colon
HCT-116 colon = test system: HCT-116 colon
HCT-15 colon = test system: HCT-15 colon
HL-60(TB) leukemia = test system: HL-60(TB) leukemia
HOP-62 NSCLC = test system: HOP-62 NSCLC
HOP-92 NSCLC = test system: HOP-92 NSCLC
HS 578T breast = test system: HS 578T breast
HT29 colon = test system: HT29 colon
IGROV1 ovarian = test system: IGROV1 ovarian
K-562 leukemia = test system: K-562 leukemia
KM12 colon = test system: KM12 colon
LOX IMVI melanoma = test system: LOX IMVI melanoma
M14 melanoma = test system: M14 melanoma
MALME-3M melanoma = test system: MALME-3M melanoma
MCF7 breast = test system: MCF7 breast
MDA-MB-231 breast = test system: MDA-MB-231 breast
MDA-MB-435 = test system: MDA-MB-435
MOLT-4 leukemia = test system: MOLT-4 leukemia
NCI-H226 lung = test system: NCI-H226 lung
NCI-H23 lung = test system: NCI-H23 lung
NCI-H460 lung = test system: NCI-H460 lung
NCI-H522 lung = test system: NCI-H522 lung
NCI/ADR-RES ovarian = test system: NCI/ADR-RES ovarian
OVCAR-3 ovarian = test system: OVCAR-3 ovarian
OVCAR-4 ovarian = test system: OVCAR-4 ovarian
OVCAR-5 ovarian = test system: OVCAR-5 ovarian
OVCAR-8 ovarian = test system: OVCAR-8 ovarian
PC-3 prostate = test system: PC-3 prostate
RPMI-8226 leukemia = test system: RPMI-8226 leukemia
RXF 393 renal = test system: RXF 393 renal
SF-268 CNS = test system: SF-268 CNS
SF-295 CNS = test system: SF-295 CNS
SF-539 CNS = test system: SF-539 CNS
SK-MEL-2 melanoma = test system: SK-MEL-2 melanoma
SK-MEL-28 melanoma = test system: SK-MEL-28 melanoma
SK-MEL-5 melanoma = test system: SK-MEL-5 melanoma
SK-OV-3 ovarian = test system: SK-OV-3 ovarian
SN12C renal = test system: SN12C renal
SNB-19 CNS = test system: SNB-19 CNS
SNB-75 CNS = test system: SNB-75 CNS
SR leukemia = test system: SR leukemia
SW-620 colon = test system: SW-620 colon
T-47D breast = test system: T-47D breast
TK-10 renal = test system: TK-10 renal
U251 CNS = test system: U251 CNS
UACC-257 melanoma = test system: UACC-257 melanoma
UACC-62 melanoma = test system: UACC-62 melanoma
UO-31 renal = test system: UO-31 renal

O=C1NC(=O)/C(=C/c2c(Cl)nc3sccn23)S1
> 75.8 µM: TGI (T-47D breast)
inactive: GI50 (786-0 renal) > 85.8 µM | GI50 (A498 renal) 1.01 µM | GI50 (A549 NSCLC) > 100 µM | GI50 (ACHN renal) > 100 µM | GI50 (BT-549 breast) > 84.5 µM | GI50 (CAKI-1 renal) > 100 µM | GI50 (CCRF-CEM leukemia) 71.2 µM | GI50 (COLO 205 colon) > 86.6 µM | GI50 (DU-145 prostate) > 100 µM | GI50 (EKVX NSCLC) > 66.1 µM | GI50 (HCC-2998 colon) > 100 µM | GI50 (HCT-116 colon) 80.4 µM | GI50 (HCT-15 colon) > 74.9 µM | GI50 (HL-60(TB) leukemia) > 100 µM | GI50 (HOP-62 NSCLC) > 100 µM | GI50 (HOP-92 NSCLC) 20.9 µM | GI50 (HS 578T breast) 30.9 µM | GI50 (HT29 colon) > 100 µM | GI50 (IGROV1 ovarian) > 100 µM | GI50 (K-562 leukemia) 68.9 µM | GI50 (KM12 colon) > 100 µM | GI50 (LOX IMVI melanoma) 57 µM | GI50 (M14 melanoma) 66.4 µM | GI50 (MALME-3M melanoma) > 59.7 µM | GI50 (MCF7 breast) > 65.4 µM | GI50 (MDA-MB-231 breast) 28.7 µM | GI50 (MDA-MB-435) 97.3 µM | GI50 (MOLT-4 leukemia) > 100 µM | GI50 (NCI-H226 lung) 14.2 µM | GI50 (NCI-H23 lung) > 56.4 µM | GI50 (NCI-H460 lung) > 75.8 µM | GI50 (NCI-H522 lung) > 100 µM | GI50 (NCI/ADR-RES ovarian) > 100 µM | GI50 (OVCAR-3 ovarian) > 70.9 µM | GI50 (OVCAR-4 ovarian) > 100 µM | GI50 (OVCAR-5 ovarian) > 74.6 µM | GI50 (OVCAR-8 ovarian) > 100 µM | GI50 (PC-3 prostate) > 87.7 µM | GI50 (RPMI-8226 leukemia) 36.1 µM | GI50 (RXF 393 renal) > 65.7 µM | GI50 (SF-268 CNS) > 57.1 µM | GI50 (SF-295 CNS) 64.4 µM | GI50 (SF-539 CNS) > 31.8 µM | GI50 (SK-MEL-2 melanoma) > 100 µM | GI50 (SK-MEL-28 melanoma) > 82.4 µM | GI50 (SK-MEL-5 melanoma) 35.5 µM | GI50 (SK-OV-3 ovarian) > 70.1 µM | GI50 (SN12C renal) > 51.5 µM | GI50 (SNB-19 CNS) > 79.1 µM | GI50 (SNB-75 CNS) > 100 µM | GI50 (SR leukemia) 37.6 µM | GI50 (SW-620 colon) > 100 µM | GI50 (T-47D breast) 31.3 µM | GI50 (TK-10 renal) > 57.6 µM | GI50 (U251 CNS) > 81.1 µM | GI50 (UACC-257 melanoma) > 91.9 µM | GI50 (UACC-62 melanoma) 42.3 µM | GI50 (UO-31 renal) > 100 µM
46.1 µM: TGI (A498 renal)
> 83.8 µM: TGI (SF-539 CNS)
> 100 µM: TGI (786-0 renal) | TGI (A549 NSCLC) | TGI (ACHN renal) | TGI (BT-549 breast) | TGI (CAKI-1 renal) | TGI (CCRF-CEM leukemia) | TGI (COLO 205 colon) | TGI (DU-145 prostate) | TGI (EKVX NSCLC) | TGI (HCC-2998 colon) | TGI (HCT-116 colon) | TGI (HCT-15 colon) | TGI (HL-60(TB) leukemia) | TGI (HOP-62 NSCLC) | TGI (HOP-92 NSCLC) | TGI (HS 578T breast) | TGI (HT29 colon) | TGI (IGROV1 ovarian) | TGI (K-562 leukemia) | TGI (KM12 colon) | TGI (LOX IMVI melanoma) | TGI (M14 melanoma) | TGI (MALME-3M melanoma) | TGI (MCF7 breast) | TGI (MDA-MB-231 breast) | TGI (MDA-MB-435) | TGI (MOLT-4 leukemia) | TGI (NCI-H226 lung) | TGI (NCI-H23 lung) | TGI (NCI-H460 lung) | TGI (NCI-H522 lung) | TGI (NCI/ADR-RES ovarian) | TGI (OVCAR-3 ovarian) | TGI (OVCAR-4 ovarian) | TGI (OVCAR-5 ovarian) | TGI (OVCAR-8 ovarian) | TGI (PC-3 prostate) | TGI (RPMI-8226 leukemia) | TGI (RXF 393 renal) | TGI (SF-268 CNS) | TGI (SF-295 CNS) | TGI (SK-MEL-2 melanoma) | TGI (SK-MEL-28 melanoma) | TGI (SK-MEL-5 melanoma) | TGI (SK-OV-3 ovarian) | TGI (SN12C renal) | TGI (SNB-19 CNS) | TGI (SNB-75 CNS) | TGI (SR leukemia) | TGI (SW-620 colon) | TGI (TK-10 renal) | TGI (U251 CNS) | TGI (UACC-257 melanoma) | TGI (UACC-62 melanoma) | TGI (UO-31 renal)
